# Reference: patent publication US8933122B2, “Use of cationic surfactants as sporicidal agents” (Laboratorios Miret, S.A., priority 2008, dated 2015)
# Legend:
# [1] = test system: endospores from Bacillus subtilis ATCC 6633; test: Sporicidal activity, quantitative suspension test EN 13704:2002 (Example 1); assay type: cell-based; conditions: 20° C.; for Test of LAE sporicidal activity (Na), surviving spores count: 0.3% bovine serum albumin, N 1.8 × 10^7 cfu/mL
# Method: The determination of the sporicidal activity of LAE has been carried out according to the European standard EN 13704:2002 “Chemical disinfectant—Quantitative suspension test for the evaluation of sporicidal activity of chemical disinfectants used in food, industrial, domestic and institutional areas—Test method and requirements”.
# A test suspension containing endospores from Bacillus subtilis ATCC 6633 was prepared from a culture grown on a nutrient agar, to which additional sporulation enhancement ingredients were added. Plates were harvested with sterile water and endospores were purified by repeated centrifugations and resuspensions in water.
# Neutralizer. The neutralizer mixture consisted of 12.7% polysorbate 80, 6.0% Tamol® SN (brand of sodium salt of naphthalene-formaldehyde condensate), 1.7% lecithin, 1% peptone and 0.1% cystine. The solution was intended to neutralize any chemicals so that these would not affect subsequent growth of the bacteria.
# The sporicidal activity of a given product is defined by its capacity to reduce at least by 10^3 the amount of Bacillus subtilis bacterial spores in suspension, in the conditions established in the method.
# The product was in contact with a suspension of bacterial spores during an established period of time of 60 minutes. An interfering substance can be added to the suspension, in this case 0.3% bovine serum albumin in distilled water. Next, the effect of the product is neutralized by adding a neutralizer previously chosen, preceding to the surviving spores count.
# • 1. Spore suspension obtained from a spored-form culture of Bacillus subtilis. • 2. Count of the spore suspension of Bacillus subtilis. • 3. The possible toxic effect of the neutralizer on the spores in the absence of the product is valued. • 4. Evaluation of the neutralizing effect of the neutralizer over the product. • 4. Evaluation of the inhibitory effect of the product. • 5. Result calculation. Results: Results are expressed as the reduction of viability of the spore suspension in regards to:
# (§1) Tabulation of the Method and Test Validation Results (at 20° C.):
# The sporicidal activity is calculated as follows: R=N×0.1/Na N is cfu/mL of the spore suspension. Na is cfu/mL of the sporicidal activity. The calculated reduction of a solution of: • 50 ppm of LAE is R=3.5×10^2 cfu/mL • 100 ppm of LAE is R=3.4×10^2 cfu/mL • 150 ppm of LAE is R=4.3×10^2 cfu/mL • 250 ppm of LAE is R>10^3 cfu/mL
# A product is considered sporicidal if its use results in a reduction in the number of Bacillus subtilis bacterial spores equal or above 10^3 after being in contact for 60 minutes in the conditions set in […].
# [2] = test system: Aspergillus niger fungical spores; test: Fungicide activity, UNE-EN 1275 (Example 2); assay type: cell-based; conditions: 20° C.; for Test of LAE fungicide activity (Na), surviving spores count: N 5 × 10^7 cfu/mL
# Excerpt: The determination of the fungicide activity of LAE has been carried out according to the European standard UNE-EN 1275: “Chemical disinfectant and antiseptic. Fungicide activity. Test method and requirements”.
# The fungicide activity of a given product is defined by its capacity to reduce at least by 10^4 the amount of Aspergillus niger fungical spores in suspension, in the conditions established in the method.
# The product is in contact with a suspension of fungical spores during an established period of time (60 minutes). After this time, the effect of the product is neutralized by adding Polysorbate 80 in water solution at 2%, preceding to the surviving spores count.
# • 1. Spore suspension obtained from a spored-form culture of Aspergillus niger. • 2. Count of the spore suspension of Aspergillus niger. • 3. The possible toxic effect of the neutralizer on the spores in the absence of the product is valued. • 4. Evaluation of the neutralizing effect of the neutralizer over the product. • 5. Evaluation of the fungicide effect of the product. • 6. Result calculation. Results:
# as §1
# Fungicide activity is calculated as follows: R=N×0.1/Na N cfu/mL of the fungical spore suspension Na cfu/mL of the fungicide activity The calculated reduction of a solution of: • 100 μg/mL of LAE is R=3.1×10^2 cfu/mL • 200 μg/mL of LAE is R=1.3×10^3 cfu/mL • 300 μg/mL of LAE is R=1.4×10^3 cfu/mL • 400 μg/mL of LAE is R=1.7×10^3 cfu/mL • 500 μg/mL of LAE is R>10^4 cfu/mL
# A product is considered fungicide if its use results in a reduction in the number of Aspergillus niger fungical spores equal to or above 10^4 after being in contact for 60 minutes in the conditions set in UNE-EN 1275.
# [3] = test system: Listeria monocytogenes ATCC 7644; conditions: Gram + Bacteria; cited from earlier work
# [4] = test system: Lactobacillus delbrueckii ssp lactis CECT 372; conditions: Gram + Bacteria; cited from earlier work
# [5] = test system: Alcaligenes faecalis ATCC 8750; conditions: Gram − Bacteria; cited from earlier work
# [6] = test system: Pseudomonas aeruginosa ATCC 9027; conditions: Gram − Bacteria; cited from earlier work
# [7] = test system: Aureobasidium pullulans ATCC 9348; conditions: Fungi; cited from earlier work
# [8] = test system: Penicillium funiculosum CECT 2914; conditions: Fungi; cited from earlier work
# [9] = rats; cited from earlier work
# [10] = human beings; cited from earlier work
# [11] = LAE 12.5 μg/mL, 60 minutes contact
# [12] = LAE 25 μg/mL, 60 minutes contact
# [13] = LAE 50 μg/mL, 60 minutes contact
# [14] = LAE 100 μg/mL, 60 minutes contact
# [15] = LAE 300 μg/mL, 60 minutes contact
compound,measurement,setting,value
"CCCCCCCCCCCC(=O)N[C@@H](CCCN=C(N)N)C(=O)OCC.Cl [LAE, ethyl ester of the lauramide of the arginine monohydrochloride]",calculated reduction R=N×0.1/Na,"[1]; 50 ppm of LAE, 60 minutes",3.5×10^2 cfu/mL
same,calculated reduction R=N×0.1/Na,"[1]; 100 ppm of LAE, 60 minutes",3.4×10^2 cfu/mL
same,calculated reduction R=N×0.1/Na,"[1]; 150 ppm of LAE, 60 minutes",4.3×10^2 cfu/mL
same,calculated reduction R=N×0.1/Na,"[1]; 250 ppm of LAE, 60 minutes",> 10^3 cfu/mL
same,concentration displaying sporicidal activity (reduction equal or above 10^3),"[1]; 60 minutes contact, EN 13704",≥ 250 ppm
same,LAE concentration from which there is inhibition of spore germination,[1]; 60 minutes,≥ 50 ppm
same,"Test of LAE sporicidal activity (Na), surviving spores count",[1]; [11],>300 cfu/mL
same,"Test of LAE sporicidal activity (Na), surviving spores count",[1]; [12],>300 cfu/mL
same,"Test of LAE sporicidal activity (Na), surviving spores count",[1]; [13],5.2 × 10^3 cfu/mL
same,"Test of LAE sporicidal activity (Na), surviving spores count",[1]; [14],5.3 × 10^3 cfu/mL
same,"Test of LAE sporicidal activity (Na), surviving spores count","[1]; LAE 150 μg/mL, 60 minutes contact",4.2 × 10^3 cfu/mL
same,"Test of LAE sporicidal activity (Na), surviving spores count","[1]; LAE 250 μg/mL, 60 minutes contact",No
same,"Test of LAE sporicidal activity (Na), surviving spores count",[1]; [15],No
same,calculated reduction R=N×0.1/Na,"[2]; 100 μg/mL of LAE, 60 minutes",3.1×10^2 cfu/mL
same,calculated reduction R=N×0.1/Na,"[2]; 200 μg/mL of LAE, 60 minutes",1.3×10^3 cfu/mL
same,calculated reduction R=N×0.1/Na,"[2]; 300 μg/mL of LAE, 60 minutes",1.4×10^3 cfu/mL
same,calculated reduction R=N×0.1/Na,"[2]; 400 μg/mL of LAE, 60 minutes",1.7×10^3 cfu/mL
same,calculated reduction R=N×0.1/Na,"[2]; 500 μg/mL of LAE, 60 minutes",> 10^4 cfu/mL
same,concentration at which fungicide active (reduction equal to or above 10^4),"[2]; 60 minutes contact, UNE-EN 1275",≥ 500 ppm
same,concentration from which a total inhibition of fungical spore germination has been observed,[2]; 60 minutes,≥ 500 ppm
same,concentration from which there is inhibition of fungical spore germination,[2]; 60 minutes,≥ 100 ppm
same,"Test of LAE fungicide activity (Na), surviving spores count",[2]; [11],>300 cfu/mL
same,"Test of LAE fungicide activity (Na), surviving spores count",[2]; [12],>300 cfu/mL
same,"Test of LAE fungicide activity (Na), surviving spores count",[2]; [13],>300 cfu/mL
same,"Test of LAE fungicide activity (Na), surviving spores count",[2]; [14],1.6 × 10^4 cfu/mL
same,"Test of LAE fungicide activity (Na), surviving spores count","[2]; LAE 200 μg/mL, 60 minutes contact",3.9 × 10^3 cfu/mL
same,"Test of LAE fungicide activity (Na), surviving spores count",[2]; [15],3.5 × 10^3 cfu/mL
same,"Test of LAE fungicide activity (Na), surviving spores count","[2]; LAE 400 μg/mL, 60 minutes contact",3.0 × 10^3 cfu/mL
same,"Test of LAE fungicide activity (Na), surviving spores count","[2]; LAE 500 μg/mL, 60 minutes contact",No
same,"Test of LAE fungicide activity (Na), surviving spores count","[2]; LAE 1000 μg/mL, 60 minutes contact",No
same,M.I.C.,[3],10 ppm
same,M.I.C.,[4],16 ppm
same,M.I.C.,[5],64 ppm
same,M.I.C.,[6],64 ppm
same,M.I.C.,[7],16 ppm
same,M.I.C.,[8],16 ppm
same,absorption and metabolism,[9],"fast absorption and metabolization into naturally-occurring amino acids and the fatty acid lauric acid, which are eventually excreted as carbon dioxide and urea"
same,tolerability and toxicity in practical use,[10],well tolerated and to display a very low toxicity to human beings
